Reference: patent US20240174618A1, “SUBSTITUTED (2-HETEROARYLOXYPHENYL)SULFONATES, SALTS THEREOF AND THEIR USE AS HERBICIDAL AGENTS” (Bayer Aktiengesellschaft, priority 2021, published 2024)

Key:
Assay type in all cases: in vivo
[1] = system: Amaranthus retroflexus (AMARE); experiment: A. Herbicidal pre-emergence efficacy, AMARE
How it was run: (§1)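 Pre-emergence soil-surface spray in sandy loam pots, WP/EC in water plus 0.5% additive, 600 L/ha. Visual % damage rating after about 3 weeks in greenhouse vs. untreated; 0% = control-like, 100% = dead plants. Rates up to 1280 g/ha.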

[2] = system: Amaranthus retroflexus (AMARE); experiment: B. Herbicidal post-emergence efficacy, AMARE
How it was run: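 Weeds grown in sandy loam in greenhouse pots, sprayed at one-leaf stage (2–3 weeks after sowing) with WP or EC formulations as aqueous suspension/emulsion plus 0.5% additive at 600 L/ha water, rates up to 1280 g/ha. Visual efficacy rated about 3 weeks later versus untreated controls (0% = like control, 100% = dead).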

Viola tricolor (VIOTR) = experiment: E. Herbicidal post-emergence efficacy, VIOTR
How it was run: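 Greenhouse post-emergence spray, one-leaf stage (2–3 wk after sowing, sandy loam); WP/EC formulation, aqueous + 0.5% additive, 600 l/ha water; rates 320 g/ha or less. Visual rating ~3 wk later vs untreated; 0% = control-like, 100% = dead.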

[3] = system: Alopecurus myosuroides (ALOMY); experiment: C. Herbicidal pre-emergence efficacy, ALOMY; conditions: scored after about 3 weeks
Text: Seeds of monocotyledonous and dicotyledonous weed plants and crop plants were placed in plastic or organic planting pots and covered with soil. The compounds of the invention, formulated in the form of wettable powders (WP) or as emulsion concentrates (EC), were then applied to the surface of the covering soil as aqueous suspension or emulsion with addition of 0.5% additive at a water application rate equivalent to 600 l/ha (converted). After the treatment, the pots were placed in a greenhouse and kept under good growth conditions for the test plants. After about 3 weeks, the efficacy of the preparations was scored visually in comparison with untreated controls as percentages. For example, • 100% efficacy=plants have died, • 0% efficacy=like untreated control plants.
Tables C1a to C14b below show the effects of selected compounds of the general formula (I) according to table 1 on various harmful plants at an application rate corresponding to 320 g/ha or less, which were obtained by the experimental procedure mentioned above.

[4] = system: Abutilon theophrasti (ABUTH); experiment: A. Herbicidal pre-emergence efficacy, ABUTH; conditions: scored visually after about 3 weeks vs untreated controls
How it was run: as §1

[5] = system: Amaranthus retroflexus (AMARE); experiment: C. Herbicidal pre-emergence efficacy, AMARE; conditions: scored after about 3 weeks
How it was run: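 Pre-emergence test: formulated compounds sprayed as aqueous suspension or emulsion with 0.5% additive at 600 l/ha onto soil covering sown seeds, at rates corresponding to 320 g/ha or less. After about 3 weeks in greenhouse, efficacy scored visually as percent versus untreated controls (100% = plants dead).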

Setaria viridis (SETVI) = experiment: A. Herbicidal pre-emergence efficacy, SETVI
How it was run: as §1

Lolium rigidum (LOLRI) = experiment: A. Herbicidal pre-emergence efficacy, LOLRI
How it was run: as §1

| SMILES | Pre-emergence efficacy against AMARE in % ([1]; 80 g/ha) [%] | Pre-emergence efficacy against AMARE in % ([1]; 320 g/ha) [%] | Pre-emergence efficacy against AMARE in % ([1]; 1280 g/ha) [%] | Post-emergence efficacy against AMARE ([2]; 80 g/ha) [%] | Post-emergence efficacy against AMARE ([2]; 320 g/ha) [%] | Post-emergence efficacy against AMARE ([2]; 1280 g/ha) [%] | Post-emergence efficacy against VIOTR in % (Viola tricolor (VIOTR); application rate 80 g/ha) [%] | Post-emergence efficacy against VIOTR in % (Viola tricolor (VIOTR); application rate 320 g/ha) [%] | Pre-emergence efficacy against ALOMY ([3]; 80 g/ha) [%] | Pre-emergence efficacy against ALOMY ([3]; 320 g/ha) [%] | Pre-emergence efficacy against ABUTH ([4]; 80 g/ha) [%] | Pre-emergence efficacy against ABUTH ([4]; 320 g/ha) [%] | Pre-emergence efficacy against ABUTH ([4]; 1280 g/ha) [%] | Pre-emergence efficacy against AMARE ([5]; 80 g/ha) [%] | Pre-emergence efficacy against AMARE ([5]; 320 g/ha) [%] | Pre-emergence efficacy against SETVI (Setaria viridis (SETVI); dosage 80 g/ha) [%] | Pre-emergence efficacy against SETVI (Setaria viridis (SETVI); dosage 320 g/ha) [%] | Pre-emergence efficacy against SETVI (Setaria viridis (SETVI); dosage 1280 g/ha) [%] | Pre-emergence efficacy against LOLRI (Lolium rigidum (LOLRI); dosage 320 g/ha) [%] | Pre-emergence efficacy against LOLRI (Lolium rigidum (LOLRI); dosage 1280 g/ha) [%] |
| --- | --- | --- | --- | --- | --- | --- | --- | --- | --- | --- | --- | --- | --- | --- | --- | --- | --- | --- | --- | --- |
| O=S(=O)(CCCCl)Oc1ccccc1Oc1ncc(F)cn1 [Example I-5] | 100 | 100 | 100 | 100 | 100 | 100 | 80 | 90 | 90 | 100 | 100 | 100 | 100 | 100 | 100 | 100 | 100 | 100 |  |  |
| O=S(=O)(CCCC(F)(F)F)Oc1c(Cl)cccc1Oc1ncc(Br)cn1 [Example I-34] | 90 | 90 | 100 | 100 | 100 | 100 | 100 | 100 |  | 80 |  |  | 90 | 100 | 100 | 90 | 90 | 100 |  |  |
| O=S(=O)(CCCC(F)(F)F)Oc1c(F)cccc1Oc1ncc(F)cn1 [Example I-42] | 100 | 100 | 100 |  |  |  | 100 | 100 | 100 | 100 | 100 | 100 | 100 | 100 | 100 | 100 | 100 | 100 | 100 | 100 |
| Cc1cccc(Oc2ncc(F)cn2)c1OS(=O)(=O)CCC(F)(F)F [Example I-45] | 90 | 100 | 100 |  |  |  | 90 | 100 |  | 100 | 100 | 100 | 100 | 80 | 100 | 90 | 100 | 100 | 100 | 100 |
| Cc1cccc(Oc2ncc(F)cn2)c1OS(=O)(=O)CCCC(F)(F)F [Example I-46] | 100 | 100 | 100 |  |  |  | 90 | 100 |  | 100 | 90 | 100 | 100 | 80 | 100 | 90 | 100 | 100 | 100 | 100 |
| O=S(=O)(CCC(F)(F)F)Oc1c(F)cccc1Oc1ncc(F)cn1 [Example I-47] | 100 | 100 | 100 |  |  |  | 100 | 100 | 100 | 100 | 100 | 100 | 100 | 100 | 100 | 100 | 100 | 100 | 100 | 100 |
